Settings in all cases: average where tested multiple times
In assay [1] the target is T1, BCAT2 (Homo sapiens, UniProt O15382).
T1 sequence (O15382 28-392): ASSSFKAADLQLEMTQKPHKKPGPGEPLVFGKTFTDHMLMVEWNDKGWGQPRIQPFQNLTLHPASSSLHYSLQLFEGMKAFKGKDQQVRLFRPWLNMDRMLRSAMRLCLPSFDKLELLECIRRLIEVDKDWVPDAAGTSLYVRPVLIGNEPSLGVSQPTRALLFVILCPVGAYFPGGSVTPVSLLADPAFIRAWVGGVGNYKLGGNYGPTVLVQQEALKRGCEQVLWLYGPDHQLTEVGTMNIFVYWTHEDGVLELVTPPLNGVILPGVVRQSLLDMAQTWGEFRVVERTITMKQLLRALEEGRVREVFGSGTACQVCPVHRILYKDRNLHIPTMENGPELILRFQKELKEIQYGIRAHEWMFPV
Put plainly: BCAT2 in vitro enzyme inhibition assay (resazurin/diaphorase-coupled fluorescence). It is filed as biochemical. The method, boiled down: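 Coupled fluorescence readout: glutamate formed from L-leucine/α-ketoglutarate transamination drives GDH/NAD/diaphorase reduction of resazurin (Ex 540/Em 590). Human BCAT2 was first exposed 1 h at room temperature to compound, top final 100 μM in 3-fold, 10-point series; substrate reaction ran 1 h before SDS quench, in technical duplicate with DMSO max and enzyme-free min controls.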
(In general: Resazurin is reduced to fluorescent resorufin, in cell work by metabolically active cells.)

Another assay deals with T2, hBCAT1 (Homo sapiens, UniProt P54687).
T2 sequence (P54687 1-386): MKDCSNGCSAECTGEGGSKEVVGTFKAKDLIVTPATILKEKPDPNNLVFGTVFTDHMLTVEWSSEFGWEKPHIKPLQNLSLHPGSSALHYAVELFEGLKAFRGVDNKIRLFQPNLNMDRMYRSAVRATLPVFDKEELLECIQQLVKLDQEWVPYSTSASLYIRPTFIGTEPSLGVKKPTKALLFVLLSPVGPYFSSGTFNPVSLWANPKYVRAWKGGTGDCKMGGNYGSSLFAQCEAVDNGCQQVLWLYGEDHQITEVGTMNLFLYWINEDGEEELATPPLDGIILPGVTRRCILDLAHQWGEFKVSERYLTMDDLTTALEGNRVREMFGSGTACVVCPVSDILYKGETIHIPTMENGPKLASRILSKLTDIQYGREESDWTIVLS
The assay is described as follows: BCAT1 in vitro enzyme inhibition assay (resazurin/diaphorase-coupled fluorescence). Type of assay: biochemical. The method, boiled down:
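Human BCAT1 activity read by resazurin/diaphorase-coupled fluorescence. Compounds added from 50× DMSO stocks at 1:50, giving 10-point 3-fold titrations from 100 μM top final concentration. Run in technical duplicate; repeat tests averaged.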

Assay [2] deals with T1, BCAT2. Put plainly: BCAT2 in vitro cell inhibition using engineered A549 cells (KMV cell assay, 13C6-KMV by LC-MS/MS). Type of assay: cell-based. Further details: The result was an engineered A549 cell line that expressed endogenous BCAT2; endogenous in cells; host or cells: A549 cells with MUT and BCAT1 knocked out by CRISPR/CAS9.

In the case of `O=C(N[C@H]1CCC[C@@H](n2c(-c3ccccc3F)nc3cnc(-c4cccnn4)cc32)C1)c1ncc(Cl)s1` [Example 188, 5-chloro-N-((1S,3R)-3-(2-(2-fluorophenyl)-6-(pyridazin-3-yl)-1H-imidazo[4,5-c]pyridin-1-yl)cyclohexyl)thiazole-2-carboxamide], the IC50 against BCAT2 [1] was no more than 0.1 µM; at hBCAT1 it was 1 to 5 µM; against BCAT2 [2], 0.1 to 0.5 µM.

Consider `O=C(N[C@H]1CCC[C@@H](n2c(-c3ccccc3F)nc3cnc(-c4cnn[nH]4)cc32)C1)c1ncc(Cl)s1` [Example 189, 5-chloro-N-((1S,3R)-3-(2-(2-fluorophenyl)-6-(1H-1,2,3-triazol-5-yl)-1H-imidazo[4,5-c]pyridin-1-yl)cyclohexyl)thiazole-2-carboxamide], for which the half-inhibitory concentration (IC50) on BCAT2 [1] was no more than 0.1 µM; at hBCAT1 it was less than 0.5 µM; at BCAT2 [2], no more than 0.1 µM.

On to `O=C(N[C@H]1CCC[C@@H](n2c(Oc3ccccc3F)nc3cnc(-c4nc[nH]n4)cc32)C1)c1ncc(Cl)s1` [Example 192, 5-chloro-N-((1S,3R)-3-(2-(2-fluorophenoxy)-6-(1H-1,2,4-triazol-3-yl)-1H-imidazo[4,5-c]pyridin-1-yl)cyclohexyl)thiazole-2-carboxamide], for which the concentration for half-maximal inhibition (IC50) on BCAT2 [1] was no more than 0.1 µM; against hBCAT1, 1 to 5 µM; against BCAT2 [2] it was greater than 1 µM.

In the case of `O=C(N[C@H]1CCC[C@@H](n2c(-c3ccccc3F)nc3cnc(N4CCCC4CO)cc32)C1)c1ncc(Cl)s1` (stereo partly drawn) [Example 196, 5-chloro-N-((1S,3R)-3-(2-(2-fluorophenyl)-6-(2-(hydroxymethyl)pyrrolidin-1-yl)-1H-imidazo[4,5-c]pyridin-1-yl)cyclohexyl)thiazole-2-carboxamide], the half-maximal inhibitory concentration (IC50) was no more than 0.1 µM at BCAT2 [1], less than 0.5 µM on hBCAT1 and no more than 0.1 µM on BCAT2 [2].

Turning to `O=C(N[C@H]1CCC[C@@H](n2c(-c3ccccc3F)nc3cnc(N4CCC(O)C4)cc32)C1)c1ncc(Cl)s1` (stereo partly drawn) [Example 199, 5-chloro-N-((1S,3R)-3-(2-(2-fluorophenyl)-6-(3-hydroxypyrrolidin-1-yl)-1H-imidazo[4,5-c]pyridin-1-yl)cyclohexyl)thiazole-2-carboxamide], the IC50 against BCAT2 [1] is no more than 0.1 µM; against hBCAT1, greater than 5 µM; against BCAT2 [2], greater than 1 µM.

For `O=C(N[C@H]1CCC[C@@H](n2c(-c3ccccc3F)nc3cnc(-c4noc(=O)[nH]4)cc32)C1)c1ncc(Cl)s1` [Example 202, 5-chloro-N-((1S,3R)-3-(2-(2-fluorophenyl)-6-(5-oxo-4,5-dihydro-1,2,4-oxadiazol-3-yl)-1H-imidazo[4,5-c]pyridin-1-yl)cyclohexyl)thiazole-2-carboxamide], the figures for the half-maximal inhibitory concentration (IC50) against BCAT2 [1], on hBCAT1 and on BCAT2 [2] were no more than 0.1 µM, less than 0.5 µM and no more than 0.1 µM, respectively.

Consider `O=C(N[C@H]1CCC[C@@H](n2c(-c3ccccc3F)nc3cnc(-c4n[nH]c(=O)o4)cc32)C1)c1ncc(Cl)s1` [Example 203, 5-chloro-N-((1S,3R)-3-(2-(2-fluorophenyl)-6-(5-oxo-4,5-dihydro-1,3,4-oxadiazol-2-yl)-1H-imidazo[4,5-c]pyridin-1-yl)cyclohexyl)thiazole-2-carboxamide], for which the IC50 was no more than 0.1 µM against BCAT2 [1], less than 0.5 µM on hBCAT1 and 0.1 to 0.5 µM at BCAT2 [2].

Consider `O=C(N[C@H]1CCC[C@@H](n2c(-c3ccccc3F)nc3cnc(-c4ccccc4)cc32)C1)c1ncc(Cl)s1` [Example 204, 5-chloro-N-((1S,3R)-3-(2-(2-fluorophenyl)-6-phenyl-1H-imidazo[4,5-c]pyridin-1-yl)cyclohexyl)thiazole-2-carboxamide], for which the IC50 against BCAT2 [1] was no more than 0.1 µM; against hBCAT1 it was 0.5 to 1 µM; against BCAT2 [2] it was 0.1 to 0.5 µM.

With `CC(C)Cc1nc2cnc(-c3cccc(F)n3)cc2n1[C@@H]1CCC[C@H](NC(=O)c2ncc(Cl)s2)[C@H]1O` [Example 209, 5-chloro-N-((1S,2R,3R)-3-(6-(6-fluoropyridin-2-yl)-2-isobutyl-1H-imidazo[4,5-c]pyridin-1-yl)-2-hydroxycyclohexyl)thiazole-2-carboxamide], the IC50 is no more than 0.1 µM against BCAT2 [1], less than 0.5 µM against hBCAT1 and 0.1 to 0.5 µM against BCAT2 [2].

Consider `Cc1coc(-c2cc3c(cn2)nc(CC(C)C)n3C2CCCC(NC(=O)c3ncc(Cl)s3)C2O)n1` (stereo not drawn) [Example 211, 5-chloro-N-(2-hydroxy-3-(2-isobutyl-6-(4-methyloxazol-2-yl)-1H-imidazo[4,5-c]pyridin-1-yl)cyclohexyl)thiazole-2-carboxamide], for which the half-inhibitory concentration (IC50) at BCAT2 [1] is no more than 0.1 µM; against hBCAT1, less than 0.5 µM; at BCAT2 [2], 0.1 to 0.5 µM.

As for `CC(C)Cc1nc2cnc(-c3cc(C(F)(F)F)n[nH]3)cc2n1[C@@H]1CCC[C@H](NC(=O)c2ncc(Cl)s2)[C@H]1O` [Example 216, 5-chloro-N-((1S,2R,3R)-2-hydroxy-3-(2-isobutyl-6-(3-(trifluoromethyl)-1H-pyrazol-5-yl)-1H-imidazo[4,5-c]pyridin-1-yl)cyclohexyl)thiazole-2-carboxamide], the results for the 50% inhibitory concentration (IC50) on BCAT2 [1], against hBCAT1 and at BCAT2 [2] were 0.1 to 0.5 µM, 1 to 5 µM and greater than 1 µM, respectively.

Turning to `O=C(NC1CCCC(n2c(-c3ncccc3F)nc3cnc(-c4ccccn4)cc32)C1O)c1ncc(Cl)s1` (stereo not drawn) [Example 220, 5-chloro-N-(3-(2-(3-fluoropyridin-2-yl)-6-(pyridin-2-yl)-1H-imidazo[4,5-c]pyridin-1-yl)-2-hydroxycyclohexyl)thiazole-2-carboxamide], the IC50 on BCAT2 [1] is no more than 0.1 µM; against hBCAT1, less than 0.5 µM; on BCAT2 [2] it was no more than 0.1 µM.

Regarding `CC(C)Cc1nc2cnc(-n3cc(F)cn3)cc2n1[C@@H]1C[C@@H](O)C[C@H](NC(=O)c2ncc(Cl)s2)C1` [Example 221, 5-chloro-N-((1R,3S,5S)-3-(6-(4-fluoro-1H-pyrazol-1-yl)-2-isobutyl-1H-imidazo[4,5-c]pyridin-1-yl)-5-hydroxycyclohexyl)thiazole-2-carboxamide], the 50% inhibitory concentration (IC50) was no more than 0.1 µM on BCAT2 [1], less than 0.5 µM against hBCAT1 and 0.1 to 0.5 µM against BCAT2 [2].

On to `CC(C)Cc1nc2cnc(-c3ccn(C)n3)cc2n1[C@@H]1CCC[C@H](NC(=O)c2ncc(Cl)s2)[C@H]1O` [Example 223, 5-chloro-N-((1S,2R,3R)-2-hydroxy-3-(2-isobutyl-6-(1-methyl-1H-pyrazol-3-yl)-1H-imidazo[4,5-c]pyridin-1-yl)cyclohexyl)thiazole-2-carboxamide], for which the IC50 was no more than 0.1 µM on BCAT2 [1], less than 0.5 µM against hBCAT1 and 0.1 to 0.5 µM on BCAT2 [2].

`CC(C)Cc1nc2cnc(-c3ccn[nH]3)cc2n1[C@@H]1CCC[C@H](NC(=O)c2ncc(Cl)s2)[C@H]1O` [Example 225, 5-chloro-N-((1S,2R,3R)-2-hydroxy-3-(2-isobutyl-6-(1H-pyrazol-5-yl)-1H-imidazo[4,5-c]pyridin-1-yl)cyclohexyl)thiazole-2-carboxamide]: the concentration for half-maximal inhibition (IC50) at BCAT2 [1] is no more than 0.1 µM; against hBCAT1, less than 0.5 µM; on BCAT2 [2], 0.1 to 0.5 µM.

Turning to `CC(C)Cc1nc2cnc(-n3nccn3)cc2n1[C@@H]1CCC[C@H](NC(=O)c2ncc(Cl)s2)[C@H]1O` [Example 227, 5-chloro-N-((1S,2R,3R)-2-hydroxy-3-(2-isobutyl-6-(2H-1,2,3-triazol-2-yl)-1H-imidazo[4,5-c]pyridin-1-yl)cyclohexyl)thiazole-2-carboxamide], the half-inhibitory concentration (IC50) is no more than 0.1 µM against BCAT2 [1], less than 0.5 µM against hBCAT1 and no more than 0.1 µM against BCAT2 [2].

Regarding `CC(C)Cc1nc2cnc(-c3ccn(C(F)F)n3)cc2n1[C@@H]1CCC[C@H](NC(=O)c2ncc(Cl)s2)[C@H]1O` [Example 230, 5-chloro-N-((1S,2R,3R)-3-(6-(1-(difluoromethyl)-1H-pyrazol-3-yl)-2-isobutyl-1H-imidazo[4,5-c]pyridin-1-yl)-2-hydroxycyclohexyl)thiazole-2-carboxamide], the 50% inhibitory concentration (IC50) at BCAT2 [1] was no more than 0.1 µM; against hBCAT1, 0.5 to 1 µM; on BCAT2 [2] it was greater than 1 µM.

Broadly, the IC50 is the point on the concentration scale where inhibition reaches its midpoint.

Values taken from patent US20260159512A1, “BCAT2 INHIBITORS” (AGIOS PHARMACEUTICALS, INC., priority 2021, published 2026).
